In patent publication US20250144067A1, “PERSONALIZED STARVATION THERAPY FOR CANCER” (Faeth Therapeutics, Inc., priority 2021, published 2025):
Structures can show the parent of a compound that is named as a salt.

test system: NCI-H292 lung cancer cells; assay: FDA drug screening, complete media vs cholesterol-free media without statin (TABLE 1); format: cell-based, human; conditions: Complete minus Cholesterol-free; >0 enhanced anti-cancer activity, about 0 neutral, <0 antagonist

SMILES | Difference
CC1(S(=O)(=O)[O-])CC(=O)c2ccccc2C1=O.[Na+] (stereo not drawn) [Menadione bisulfite (sodium)] | 0.03
COc1ccc(O)cc1 [Mequinol] | −0.26
O=S(=O)(O)CCS [Mesna] | −0.29
C#C[C@]1(O)CC[C@H]2[C@@H]3CCc4cc(OC)ccc4[C@H]3CC[C@@]21C [Mestranol] | −0.06
C1N2CN3CN1CN(C2)C3.O=C(O)CNC(=O)c1ccccc1 [Methenamine (hippurate)] | 0.05
COc1cccc(OC)c1C(=O)N[C@@H]1C(=O)N2[C@@H]1SC(C)(C)[C@@H]2C(=O)O [Methicillin (sodium salt)] | −0.06
Cn1cc[nH]c1=S [Methimazole] | −0.20
COc1ccccc1OCC(O)COC(N)=O (stereo not drawn) [Methocarbamol] | −0.29
CN(Cc1cnc2nc(N)nc(N)c2n1)c1ccc(C(=O)N[C@@H](CCC(=O)[O-])C(=O)[O-])cc1.[Na+].[Na+] [Methotrexate (disodium)] | −0.05

same assay, conditions: Complete minus Cholesterol-free; […]

SMILES | Difference
Cc1ncc(CO)c(CO)c1O.O=C1CC[C@@H](C(=O)O)N1 [Metadoxine] | −0.12

same assay, conditions: Complete minus Cholesterol-free; greater than 0 enhanced anti-cancer activity, about 0 neutral, below 0 antagonist

SMILES | Difference
CC12CC3CC(C)(C1)CC(N)(C3)C2 [Memantine (hydrochloride)] | −0.14
Cc1cccc(C)c1NC(=O)C1CCCCN1C (stereo not drawn) [Mepivacaine] | −0.09
COc1ccc(CN(CCN(C)C)c2ccccn2)cc1 [Mepyramine maleate] | −0.17
CC(=O)OC(C)C[N+](C)(C)C.[Cl-] (stereo not drawn) [Methacholine (chloride)] | −0.15
CN(Cc1cnc2nc(N)nc(N)c2n1)c1ccc(C(=O)N[C@@H](CCC(=O)O)C(=O)O)cc1 [Methotrexate] | −0.13

same assay, conditions: NCI-H292 cells, FDA drug library screen, cholesterol-free media without statin

SMILES | Cholesterol-free
CC12CC3CC(C)(C1)CC(N)(C3)C2 [Memantine (hydrochloride)] | 0.8008
Cc1cccc(C)c1NC(=O)C1CCCCN1C (stereo not drawn) [Mepivacaine] | 1.247
COc1ccc(CN(CCN(C)C)c2ccccn2)cc1 [Mepyramine maleate] | 1.527
Cc1ncc(CO)c(CO)c1O.O=C1CC[C@@H](C(=O)O)N1 [Metadoxine] | 1.129
CC(=O)OC(C)C[N+](C)(C)C.[Cl-] (stereo not drawn) [Methacholine (chloride)] | 1.05
CN(Cc1cnc2nc(N)nc(N)c2n1)c1ccc(C(=O)N[C@@H](CCC(=O)O)C(=O)O)cc1 [Methotrexate] | 0.225

same assay, conditions: NCI-H292 cells, FDA drug library screen, complete media

SMILES | Complete
CC12CC3CC(C)(C1)CC(N)(C3)C2 [Memantine (hydrochloride)] | 0.656
Cc1cccc(C)c1NC(=O)C1CCCCN1C (stereo not drawn) [Mepivacaine] | 1.156
COc1ccc(CN(CCN(C)C)c2ccccn2)cc1 [Mepyramine maleate] | 1.356
Cc1ncc(CO)c(CO)c1O.O=C1CC[C@@H](C(=O)O)N1 [Metadoxine] | 1.01
CC(=O)OC(C)C[N+](C)(C)C.[Cl-] (stereo not drawn) [Methacholine (chloride)] | 0.8971
CN(Cc1cnc2nc(N)nc(N)c2n1)c1ccc(C(=O)N[C@@H](CCC(=O)O)C(=O)O)cc1 [Methotrexate] | 0.09944

same assay, conditions: NCI-H292 cells, cholesterol-free media without statin

SMILES | Cholesterol-free
COc1ccc(O)cc1 [Mequinol] | 0.8829
O=S(=O)(O)CCS [Mesna] | 1.145
Cn1cc[nH]c1=S [Methimazole] | 1.024
COc1ccccc1OCC(O)COC(N)=O (stereo not drawn) [Methocarbamol] | 1.357

same assay, conditions: NCI-H292 cells, cholesterol-free media without statin, FDA drug library screen

SMILES | Cholesterol-free
CC1(S(=O)(=O)[O-])CC(=O)c2ccccc2C1=O.[Na+] (stereo not drawn) [Menadione bisulfite (sodium)] | 1.466
C#C[C@]1(O)CC[C@H]2[C@@H]3CCc4cc(OC)ccc4[C@H]3CC[C@@]21C [Mestranol] | 0.9912
C1N2CN3CN1CN(C2)C3.O=C(O)CNC(=O)c1ccccc1 [Methenamine (hippurate)] | 0.09528
COc1cccc(OC)c1C(=O)N[C@@H]1C(=O)N2[C@@H]1SC(C)(C)[C@@H]2C(=O)O [Methicillin (sodium salt)] | 1.114
CN(Cc1cnc2nc(N)nc(N)c2n1)c1ccc(C(=O)N[C@@H](CCC(=O)[O-])C(=O)[O-])cc1.[Na+].[Na+] [Methotrexate (disodium)] | 0.06701

same assay, conditions: NCI-H292 cells, complete media

SMILES | Complete
COc1ccc(O)cc1 [Mequinol] | 0.6277
O=S(=O)(O)CCS [Mesna] | 0.8536
Cn1cc[nH]c1=S [Methimazole] | 0.8245
COc1ccccc1OCC(O)COC(N)=O (stereo not drawn) [Methocarbamol] | 1.063

same assay, conditions: NCI-H292 cells, complete media, FDA drug library screen

SMILES | Complete
CC1(S(=O)(=O)[O-])CC(=O)c2ccccc2C1=O.[Na+] (stereo not drawn) [Menadione bisulfite (sodium)] | 1.492
C#C[C@]1(O)CC[C@H]2[C@@H]3CCc4cc(OC)ccc4[C@H]3CC[C@@]21C [Mestranol] | 0.9277
C1N2CN3CN1CN(C2)C3.O=C(O)CNC(=O)c1ccccc1 [Methenamine (hippurate)] | 0.1431
COc1cccc(OC)c1C(=O)N[C@@H]1C(=O)N2[C@@H]1SC(C)(C)[C@@H]2C(=O)O [Methicillin (sodium salt)] | 1.051
CN(Cc1cnc2nc(N)nc(N)c2n1)c1ccc(C(=O)N[C@@H](CCC(=O)[O-])C(=O)[O-])cc1.[Na+].[Na+] [Methotrexate (disodium)] | 0.01682

test system: NCI-H292 lung cancer cells; assay: FDA drug screening, complete media vs cholesterol-free media with simvastatin (TABLE 2); format: cell-based, human; conditions: NCI-H292 cells, FDA drug library screen, cholesterol-free media with simvastatin 0.04 μM

SMILES | Cholesterol-free media + simvastatin (0.04 μM)
O=S(=O)(O)CCS [Mesna] | 1.227
Cc1ncc(CO)c(CO)c1O.O=C1CC[C@@H](C(=O)O)N1 [Metadoxine] | 1.163
Cn1cc[nH]c1=S [Methimazole] | 1.144

same assay, conditions: NCI-H292 cells, FDA drug library screen, complete media

SMILES | Complete Media
O=S(=O)(O)CCS [Mesna] | 1.122
Cc1ncc(CO)c(CO)c1O.O=C1CC[C@@H](C(=O)O)N1 [Metadoxine] | 1.057
Cn1cc[nH]c1=S [Methimazole] | 1.001

same assay, conditions: NCI-H292 cells, FDA library drug in cholesterol-free media with simvastatin 0.04 μM

SMILES | Cholesterol-free media + simvastatin (0.04 μM)
Cc1cccc(C)c1NC(=O)C1CCCCN1C (stereo not drawn) [Mepivacaine] | 1.558
COc1ccc(CN(CCN(C)C)c2ccccn2)cc1 [Mepyramine maleate] | 1.226
COc1ccc(O)cc1 [Mequinol] | 1.22
C#C[C@]1(O)CC[C@H]2[C@@H]3CCc4cc(OC)ccc4[C@H]3CC[C@@]21C [Mestranol] | 1.197
COc1cccc(OC)c1C(=O)N[C@@H]1C(=O)N2[C@@H]1SC(C)(C)[C@@H]2C(=O)O [Methicillin (sodium salt)] | 1.829
COc1ccccc1OCC(O)COC(N)=O (stereo not drawn) [Methocarbamol] | 1.33

same assay, conditions: NCI-H292 cells, FDA library drug in complete media

SMILES | Complete Media
Cc1cccc(C)c1NC(=O)C1CCCCN1C (stereo not drawn) [Mepivacaine] | 0.984
COc1ccc(CN(CCN(C)C)c2ccccn2)cc1 [Mepyramine maleate] | 0.8399
COc1ccc(O)cc1 [Mequinol] | 0.8263
C#C[C@]1(O)CC[C@H]2[C@@H]3CCc4cc(OC)ccc4[C@H]3CC[C@@]21C [Mestranol] | 0.9303
COc1cccc(OC)c1C(=O)N[C@@H]1C(=O)N2[C@@H]1SC(C)(C)[C@@H]2C(=O)O [Methicillin (sodium salt)] | 1.406
COc1ccccc1OCC(O)COC(N)=O (stereo not drawn) [Methocarbamol] | 0.8727

same assay, conditions: NCI-H292 cells, cholesterol-free media with simvastatin 0.04 μM; FDA drug library screen (TABLE 2)

SMILES | Cholesterol-free media + simvastatin (0.04 μM)
CC(=O)OC(C)C[N+](C)(C)C.[Cl-] (stereo not drawn) [Methacholine (chloride)] | 1.245
C1N2CN3CN1CN(C2)C3.O=C(O)CNC(=O)c1ccccc1 [Methenamine (hippurate)] | 0.3855
CN(Cc1cnc2nc(N)nc(N)c2n1)c1ccc(C(=O)N[C@@H](CCC(=O)[O-])C(=O)[O-])cc1.[Na+].[Na+] [Methotrexate (disodium)] | 0.2727
CN(Cc1cnc2nc(N)nc(N)c2n1)c1ccc(C(=O)N[C@@H](CCC(=O)O)C(=O)O)cc1 [Methotrexate] | 0.1275

same assay, conditions: NCI-H292 cells, cholesterol-free media with simvastatin 0.04 μM; cell growth value in FDA drug screen

SMILES | Cholesterol-free media + simvastatin (0.04 μM)
CC12CC3CC(C)(C1)CC(N)(C3)C2 [Memantine (hydrochloride)] | 0.8007

same assay, conditions: NCI-H292 cells, complete media; FDA drug library screen (TABLE 2)

SMILES | Complete Media
CC(=O)OC(C)C[N+](C)(C)C.[Cl-] (stereo not drawn) [Methacholine (chloride)] | 1.195
C1N2CN3CN1CN(C2)C3.O=C(O)CNC(=O)c1ccccc1 [Methenamine (hippurate)] | 0.3286
CN(Cc1cnc2nc(N)nc(N)c2n1)c1ccc(C(=O)N[C@@H](CCC(=O)[O-])C(=O)[O-])cc1.[Na+].[Na+] [Methotrexate (disodium)] | 0.2318
CN(Cc1cnc2nc(N)nc(N)c2n1)c1ccc(C(=O)N[C@@H](CCC(=O)O)C(=O)O)cc1 [Methotrexate] | 0.1078

same assay, conditions: NCI-H292 cells, complete media; cell growth value in FDA drug screen

SMILES | Complete Media
CC12CC3CC(C)(C1)CC(N)(C3)C2 [Memantine (hydrochloride)] | 0.853

same assay, conditions: NCI-H292 cells, drug in cholesterol-free media with simvastatin 0.04 μM

SMILES | Cholesterol-free media + simvastatin (0.04 μM)
CC1(S(=O)(=O)[O-])CC(=O)c2ccccc2C1=O.[Na+] (stereo not drawn) [Menadione bisulfite (sodium)] | 0.991

same assay, conditions: NCI-H292 cells, drug in complete media

SMILES | Complete Media
CC1(S(=O)(=O)[O-])CC(=O)c2ccccc2C1=O.[Na+] (stereo not drawn) [Menadione bisulfite (sodium)] | 0.8295

same assay, conditions: complete media minus cholesterol-free media + simvastatin (0.04 μM); >0 enhanced anti-cancer activity, about 0 neutral, <0 antagonist

SMILES | Difference
CC(=O)OC(C)C[N+](C)(C)C.[Cl-] (stereo not drawn) [Methacholine (chloride)] | −0.05
C1N2CN3CN1CN(C2)C3.O=C(O)CNC(=O)c1ccccc1 [Methenamine (hippurate)] | −0.06
CN(Cc1cnc2nc(N)nc(N)c2n1)c1ccc(C(=O)N[C@@H](CCC(=O)[O-])C(=O)[O-])cc1.[Na+].[Na+] [Methotrexate (disodium)] | −0.04
CN(Cc1cnc2nc(N)nc(N)c2n1)c1ccc(C(=O)N[C@@H](CCC(=O)O)C(=O)O)cc1 [Methotrexate] | −0.02

same assay, conditions: complete media minus cholesterol-free media + simvastatin; >0 enhanced anti-cancer activity, about 0 neutral, <0 antagonist

SMILES | Difference
CC12CC3CC(C)(C1)CC(N)(C3)C2 [Memantine (hydrochloride)] | 0.05

same assay, conditions: complete media vs cholesterol-free media + simvastatin (0.04 μM); >0 enhanced anti-cancer activity, about 0 neutral, <0 antagonist

SMILES | Difference
CC1(S(=O)(=O)[O-])CC(=O)c2ccccc2C1=O.[Na+] (stereo not drawn) [Menadione bisulfite (sodium)] | −0.16
Cc1cccc(C)c1NC(=O)C1CCCCN1C (stereo not drawn) [Mepivacaine] | −0.57
COc1ccc(CN(CCN(C)C)c2ccccn2)cc1 [Mepyramine maleate] | −0.39
COc1ccc(O)cc1 [Mequinol] | −0.39
O=S(=O)(O)CCS [Mesna] | −0.10
C#C[C@]1(O)CC[C@H]2[C@@H]3CCc4cc(OC)ccc4[C@H]3CC[C@@]21C [Mestranol] | −0.27
COc1cccc(OC)c1C(=O)N[C@@H]1C(=O)N2[C@@H]1SC(C)(C)[C@@H]2C(=O)O [Methicillin (sodium salt)] | −0.42
Cn1cc[nH]c1=S [Methimazole] | −0.14
COc1ccccc1OCC(O)COC(N)=O (stereo not drawn) [Methocarbamol] | −0.46

same assay, conditions: complete media vs cholesterol-free media + simvastatin (0.04 μM); […]

SMILES | Difference
Cc1ncc(CO)c(CO)c1O.O=C1CC[C@@H](C(=O)O)N1 [Metadoxine] | −0.11
